Measured values reported in patent EP1760056A1, “A convenient method for the preparation of no-carrier-added O-(2-[18F]fluoroethyl)-L-Tyrosine)” (Institute of Nuclear Energy Research, priority 2005, dated 2007).
Where two headings read alike, the source gives them in different places.

Tests used:
F98 glioma cells [1] = test: L-[18F]FET uptake by F98 glioma tumor cells; assay type: cell-based, rat; settings: 10 µCi/well
Experimental: • (1) In five six-well plates, put 1×10^6 F98 glioma cells and 2 ml DMEM (1g glucose/1) into three wells. • (2) Total of five time points (2, 5, 10, 30 minute and 1hour) in this experiment and each time point use one six-well plate. • (3) Predetermined activity of L-[^18F]FET or [^18F]FDG (10 µCi/well) is added into each well during the experiment. […] F98 glioma cells intake L-[^18F]FET rapidly and maximal accumulation will reach after 10 minutes (uptake ratio 0.47%). As cell cannot metabolize L-[^18F]FET, therefore, the rate of L-[^18F]FET transportation by the cells become balance after ten minutes when add L-[^18F]FET; the accumulation of L-[^18F]FET in glioma cells only slightly decrease after 1 hour (uptake ratio 0.41%).

[2] = Biological distribution of L-[18F]FET in F98 glioma-bearing Fischer 344 rat; settings: in vivo, iv; for tissue uptake at 0.25 h: 15 min after injection via tail vein; for tissue uptake at 0.5 h: 30 min after injection via tail vein; for tissue uptake at 1 h: 60 min after injection via tail vein; for tissue uptake at 2 h: 120 min after injection via tail vein
Experimental: (§1) • (1) Total of twenty Fischer 344 male rats will be assessed in vivo for L-[^18F]FET biological distribution. Use the intersection of bregma and sagittal midlines as original point; so as to implant F98 glioma cells (1 × 10^5cells /10 µl) at the place of 3mm left 5mm upward and 5mm depth. Biological distribution test will be carry out after 11~12 days of brain tumor implantation. • (2) Different volume of radioactive level is injected, injected volume of L-[^18F]FET for each Fischer 344 rat is 200~300µl, that is approximately 200~250 µCi of activity. • (3) Inject L-[^18F]FET via tail vein, and rats are sacrificed at 15, 30, 60, 90 and 120 minutes. • (4) Dissection of rat organ is right after sacrifice. Scissors off chest and abdomen fur alone the line from genital pore upward to jowl. Next, scissors off chest above xiphisternal transversely. Open ribs aside, take blood sample from venous sinus with 0.5 ml syringe. Withdraw the needle after depletion of blood and collect the extracted heart. Collect the lung lobes with forcep. • (5) Scissors off abdominal muscle from genital pore upward to the position below xiphisternal longitudinally. Then, scissors off the opening of upper and lower edges transversely, everts muscle layers to both sides and expose celiac organs. Search for bladder in lower abdomen and sequentially removes stomach, liver, spleen, small intestine, large intestine, kidney, and muscle. • (6) After turn over the rat, scissors off fur of shoulder and removes exposed subcutaneous tumor. Cut scalp upward at lower margin of cranium above foramen magnum and expose cranial bone. Then, cut cervical portion transversely at foramen magnum and expose spinal cord. Inserts foramen magnum with scissors' tip while attach the inner surface of cranium; such that scissors' tip can reach the frontal edge of cranial cavity in order to scissor off the center of cranium. Use scissors to open cranium aside and expose brain tissue. Alone skull base insert scissors deeply to the front edge of cranial cavity in order to remove left-brain, right-brain and brain tumor. • (7) Weight all organ samples; measure radioactivity with γ-counter and convert to %ID/g (% injection dose/g organ) of each organ for estimate the biological distribution of L-[^18F]FET. […] According to reports, L-[^18F]FET can pass through blood brain barrier (BBB) and enter brain by way of L amino acid transporter system. […] Tumor-to-normal brain ratio of L-[^18F]FET at 15, 30, 60, 90 and 120 minutes are 1.54, 1.74, 3.16, 3.14 and 2.34 respectively. Besides brain tumor, rat pancreas also accumulate large amount of L-[^18F]FET (0.98, 1.76, 2.55, 2.28 and 2.24 %ID/g respectively at 15, 30, 60, 90 and 120 minutes); the increasing radioactivity of L-[^18F]FET in pancreas is because of pancreas require large amount of amino acid for synthesis various enzymes and hormones. Some papers reported that patient with tumor observes no significant accumulation of radioactivity in pancreas when use positron emission tomography (PET), the discrepant results were assumed that human and rat have different metabolic pathway. Furthermore, biological distribution study of L-[^18F]FET indicated radioactivity accumulation in tumor cells (expressed by %ID/g) are much higher than other normal organs (left-brain, small intestine, kidney, liver, blood and muscle) except pancreas, this means L-[^18F]FET can be a potential PET agent for substantially different site of tumor. […] Table 1: Determination of accumulated radioactivity (%ID/g) in organs at different time points after injected L-[18F]FET into tumor-bearing rat

F98 glioma cells [3] = test: as above; settings: in vivo
Experimental: as §1

brain tumor (F98 glioma) = test: PET and microPET imaging of tumor-bearing rat with L-[18F]FET; assay type: in vivo, rat (Fischer 344); settings: 400 µCi into tail vein
Experimental: • (1) Positron emission tomography (PET) studies of tumor-bearing rat (Fischer 344) with L-[^18F]FET will be carry out after 11~12 days of brain tumor (F98 glioma) implantation. • (2) Producing processes of L-[^18F]FET as described above, and estimates its administrating amount of agent according to the level of radioactivity. • (3) At the very beginning, inject 400 µCi of L-[^18F]FET into tail vein. Temporarily anesthetize rats with ether at time of 0.5, 1, 1.5 and 2 hours. Fix rat on transparent acrylic board and place on PET table after securing stretched limbs on the board. Continuously anesthetize rats with isoflurane gas. Align implant portion of head with PET machine as to assure the fixation of original imaging position. • (4) Adjust background value by blank scan before PET imaging. • (5) Use Ga-68 radioactive source proceed transmission scan for adjust tissue attenuation. • (6) Commence PET and microPET imaging. Perform image processing after reconstruction of acquired image data; the coronal and cross section scans show in Figure 3 and 9. […] In contrast to tumor site, normal tissue have lower radioactivity accumulation of L-[^18F]FET because of lower amino acid requirement.

[4] = Liver, read-out: accumulated radioactivity
[5] = Lung, read-out: accumulated radioactivity
[6] = Muscle, read-out: accumulated radioactivity
[7] = Pancreas, read-out: accumulated radioactivity
[8] = Right brain, read-out: accumulated radioactivity

N[C@@H](Cc1ccc(OCC[18F])cc1)C(=O)O [L-[^18F]FET, O-(2-[^18F]fluoroethyl)-L-Tyrosine]
uptake ratio (F98 glioma cells [1]; after 10 minutes (maximal accumulation)): 0.47%
uptake ratio (F98 glioma cells [1]; after 1 hour): 0.41%
tissue uptake at 0.25 h [2, 4]: 0.27 ± 0.06 %ID/g
tissue uptake at 0.5 h [2, 4]: 0.37 ± 0.07 %ID/g
tissue uptake at 1 h [2, 4]: 0.41 ± 0.06 %ID/g
tissue uptake at 1.5 h ([2]; Liver, 90 min after injection via tail vein, read-out: accumulated radioactivity): 0.49 ± 0.01 %ID/g
tissue uptake at 2 h [2, 4]: 0.41 ± 0.09 %ID/g
tissue uptake at 0.25 h [2, 5]: 0.32 ± 0.05 %ID/g
tissue uptake at 0.5 h [2, 5]: 0.43 ± 0.09 %ID/g
tissue uptake at 1 h [2, 5]: 0.43 ± 0.07 %ID/g
tissue uptake at 1.5 h ([2]; Lung, 90 min after injection via tail vein, read-out: accumulated radioactivity): 0.45 ± 0.02 %ID/g
tissue uptake at 2 h [2, 5]: 0.4 ± 0.06 %ID/g
tissue uptake at 0.25 h [2, 6]: 0.19 ± 0.03 %ID/g
tissue uptake at 0.5 h [2, 6]: 0.28 ± 0.01 %ID/g
tissue uptake at 1 h [2, 6]: 0.36 ± 0.04 %ID/g
tissue uptake at 1.5 h ([2]; Muscle, 90 min after injection via tail vein, read-out: accumulated radioactivity): 0.44 ± 0.1 %ID/g
tissue uptake at 2 h [2, 6]: 0.37 ± 0.1 %ID/g
tissue uptake at 0.25 h [2, 7]: 0.98 %ID/g
tissue uptake at 0.5 h [2, 7]: 1.76 %ID/g
tissue uptake at 1 h [2, 7]: 2.55 %ID/g
tissue uptake at 1.5 h ([2]; Pancreas, 90 min after injection via tail vein, read-out: accumulated radioactivity): 2.28 %ID/g
tissue uptake at 2 h [2, 7]: 2.24 %ID/g
tissue uptake at 0.25 h [2, 8]: 0.07 ± 0.02 %ID/g
tissue uptake at 0.5 h [2, 8]: 0.21 ± 0.03 %ID/g
tissue uptake at 1 h [2, 8]: 0.34 ± 0.03 %ID/g
tissue uptake at 1.5 h ([2]; Right brain, 90 min after injection via tail vein, read-out: accumulated radioactivity): 0.48 ± 0.08 %ID/g
tissue uptake at 2 h [2, 8]: 0.34 ± 0.04 %ID/g
tissue uptake at 1.5 h ([2]; maximum accumulation in normal brain tissue): 0.48 %ID/g
Tumor-to-normal brain ratio (F98 glioma cells [3]; 15 min): 1.54
Tumor-to-normal brain ratio (F98 glioma cells [3]; 30 min): 1.74
Tumor-to-normal brain ratio (F98 glioma cells [3]; 60 min): 3.16
Tumor-to-normal brain ratio (F98 glioma cells [3]; 90 min): 3.14
Tumor-to-normal brain ratio (F98 glioma cells [3]; 120 min): 2.34
radioactivity accumulation in brain tumor (brain tumor (F98 glioma)): significant radioactivity accumulation in brain tumor
time of maximum uptake in brain tumor (brain tumor (F98 glioma); time after injection): 90 min
